According to patent US4920231A, “Process of braking triflouromethyl compounds” (Roussel Uclaf, priority 1988, dated 1990):
Converted amounts (≈) assume the structure as drawn.

Experiments:
Assay type in all cases: in vivo
house-fly = assay: Study of lethal activity on the house-fly (topical application); conditions: four-day old female house-flies, topical 1 μl acetone solution on dorsal thorax, mortality at 24 hours; without synergist or with piperonyl butoxide (table does not say which)
Experimental: A. Study of lethal activity on the house-fly
The insects tested were four-day old female house-flies and the test was carried out by topical application of 1 μl of acetone solution on the dorsal thorax of the insects using an Arnold micromanipulator. 50 individuals per treatment were used and a mortality check was carried out 24 hours after treatment. The tests were carried out without a synergist or with the addition of piperonyl butoxide (10 parts of synergist per 1 part of test compound). The experimental results, given in the following table, are expressed in LD 50 (in nanograms) necessary to kill 50% of the insects: […]

[1] = tested on: Boophilus microplus females; assay: Study of the activity on inhibition of the reproduction of Boophilus microplus ticks; conditions: for activity on inhibition of reproduction of Boophilus microplus ticks (conclusion): 100 to 0.19 ppm; for inhibition at 0.19 ppm / inhibition at 0.38 ppm / inhibition at 0.75 ppm / inhibition at 1.5 ppm / inhibition at 3.1 ppm / inhibition at 6.2 ppm / inhibition at 12.5 ppm / inhibition at 25 ppm / inhibition at 50 ppm / inhibition at 100 ppm: Rhipicephalus microplus, 5 min, females submerged for 5 minutes
Experimental: (§1) The substance under test was dissolved in a mixture of dimethylformamide, emulsifiers and Arcopal so as to obtain a concentrate emulsifying at 10%. This concentrate was diluted with water to obtain solutions of the desired concentrations of 100, 10 and 1 ppm. Using a spraying tower, the various solutions were sprayed over the larvae of tropical cattle ticks of Boophilus microplus type, and after 24 hours, the percentage of mortality was determined by counting the living and dead larvae. The results are as follows:
(b) Study of the activity on inhibition of the reproduction of Boophilus microplus ticks
Boophilus microplus females, ready to lay eggs, were submerged for 5 minutes in the solutions prepared above and then they were placed in a heated chamber to lay the eggs. […]

Aphis cracivora = assay: Study of the lethal effect on Aphis cracivora (contact-injection method, treated broad-bean leaf); conditions: 7-day old adults, contact with treated leaf for one hour, mortality after 24 hours
Experimental: B. Study of the lethal effect on Aphis cracivora
7-day old adults were used and 10 aphids per concentration used were employed. A contact-injection method was used and the treatment of a broad-bean leaf was carried out with a Fisher gun, the leaf being placed in a plastic Petri dish on a circle of damp paper. The treatment was carried out with 2 ml of acetone solution of the product under test (1 ml per side of leaf). The infestation by the insects was brought about after drying the leaf and the insects were kept in contact with the leaf for one hour. Insects were placed on untreated leaves and the mortality was checked after 24 hours.

[2] = tested on: Boophilus microplus larvae; assay: Study of the activity on Boophilus microplus larvae (spraying tower, % mortality); conditions: for activity on Boophilus microplus larvae (conclusion): 100, 10 and 1 ppm; for mortality at 1 ppm / mortality at 10 ppm / mortality at 100 ppm: Rhipicephalus microplus, in Bos taurus, larvae, after 24 hours
Experimental: C. Study of the acaricide activity in animals
(a) Study of the activity on Boophilus microplus larvae
as §1, with “larvae.” for “larvae. The results are as follows:”

SMILES | LD 50 (house-fly) [ng/insect] | activity on inhibition of reproduction of Boophilus microplus ticks (conclusion) [1] | inhibition at 0.19 ppm [1] [%] | inhibition at 0.38 ppm [1] [%] | inhibition at 0.75 ppm [1] [%] | inhibition at 1.5 ppm [1] [%] | inhibition at 3.1 ppm [1] [%] | inhibition at 6.2 ppm [1] [%] | inhibition at 12.5 ppm [1] [%] | inhibition at 25 ppm [1] [%] | inhibition at 50 ppm [1] [%] | inhibition at 100 ppm [1] [%] | LC50 (Aphis cracivora) [µg/mL] | activity on Boophilus microplus larvae (conclusion) [2] | mortality at 1 ppm [2] [%] | mortality at 10 ppm [2] [%] | mortality at 100 ppm [2] [%]
C[C@@H](OC(=O)[C@@H]1[C@@H](/C=C(/c2ccc(Cl)cc2)C(F)(F)F)C1(C)C)c1cccc(Oc2ccccc2)n1 [Example 3, 1-(6-phenoxy-2-pyridyl)-ethyl [1R-[1α(R*), 3β]]2,2-dimethyl-3-[(ΔZ)-2-(4-chlorophenyl)-3,3,3-trifluoro-1-propenyl]-cyclopropane carboxylate] | 19.6 | remarkable activity | 100 | 100 | 100 | 100 | 100 | 100 | 100 | 100 | 100 | 100 | 1.34 (≈ 2.6 µM) | remarkable activity | 100 | 100 | 100
CC1(C)[C@H](/C=C(/c2ccc(Cl)cc2)C(F)(F)F)[C@H]1C(=O)O[C@H](C#N)c1ccc(F)c(Oc2ccccc2)c1 [Example 4, α-Cyano-4-fluoro-3-phenoxy-benzyl [1R-[1α(S*)-3β]-2,2-dimethyl-3-[(ΔZ) 2-(4-chlorophenyl)-3,3,3-trifluoro-1-propenyl]-cyclopropane carboxylate] | 5.3 | remarkable activity | 100 | 100 | 100 | 100 | 100 | 100 | 100 | 100 | 100 | 100 | 0.6 (≈ 1.1 µM) | remarkable activity | 100 | 100 | 100
CC(OC(=O)[C@@H]1[C@@H](/C=C(/c2ccc(Cl)cc2)C(F)(F)F)C1(C)C)c1cccc(Oc2ccccc2)n1 (stereo partly drawn) [Example 5, 1-(6-phenoxy-2-pyridyl)-ethyl [1R-(1α,(RS), 3β]] 2,2-dimethyl-3-[(ΔZ)-2-(4-chlorophenyl)-3,3,3-trifluoro-1-propenyl]-cyclopropane carboxylate] | – | remarkable activity | – | 85 | 100 | 100 | 100 | 100 | 100 | 100 | 100 | 100 | – | remarkable activity | 100 | 100 | –
